Kd and IC50 data for 1 molecule are collected here from patent US20250034173A1, “PYRIDO[4,3-D]PYRIMIDINE COMPOUNDS” (PFIZER INC., priority 2023, published 2025).

What is called Kd is the concentration at which binding is half-saturated. Low readings indicate higher affinity, high ones lower affinity. A word on the IC50: it is the concentration at which inhibition is half-maximal. The low end stands for greater potency, the high end for weaker potency.

The structures appear in SMILES notation. Where only a bound is given, the exact number is not on record here.

Experiment [1] addresses T1, KRAS Wild Type (Homo sapiens (Human), UniProt P01116). The experiment in a line: SPR binding affinity and kinetics, GDP-loaded KRAS Wild Type. The note with it: GDP loaded protein, geomean. The source says: (§1) No additional regeneration was used.
(§2) Compound dissociation was monitored for at least 3600 seconds. […] No additional regeneration was used.
(§3) The adequateness of the fit was judged by c2 values and the randomness of residue distribution.
For orientation: SPR reads the build-up and loss of mass on a sensor chip optically.

Experiment [2] deals with T2, KRAS G12D (Homo sapiens (Human), UniProt P01116, G12D). The experiment in a line: SPR binding affinity and kinetics, GDP-loaded KRAS G12D. The conditions noted are these: GDP loaded protein, geomean.
Description: as §1, §2, §3

Experiment [3] deals with T3, KRAS G12C (Homo sapiens (Human), UniProt P01116, G12C). The experiment in a line: SPR binding affinity and kinetics, GDP-loaded KRAS G12C. The note with it: GDP loaded protein, geomean.
Description: as §1, §2, §3

Experiment [4] has as its target T4, KRAS G12V (Homo sapiens (Human), UniProt P01116, G12V). The experiment in a line: SPR binding affinity and kinetics, GDP-loaded KRAS G12V. The conditions noted are these: GDP loaded protein, geomean.
Description: as §1, §2, §3

Experiment [5] addresses T1, KRAS Wild Type. The experiment in a line: SPR binding affinity and kinetics, GTPγS-loaded KRAS Wild Type. The note with it: GTPγS loaded protein, geomean. Summed up: (§4)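 Surface plasmon resonance tracked compound dissociation for at least 3600 seconds, with no additional regeneration between cycles. Fit adequacy was judged from c2 values and randomness of the residue distribution.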

Experiment [6] addresses T2, KRAS G12D. The experiment in a line: SPR binding affinity and kinetics, GTPγS-loaded KRAS G12D. The conditions noted are these: GTPγS loaded protein, geomean. Summed up: as §4
The target of experiment [7] is T3, KRAS G12C. The experiment in a line: SPR binding affinity and kinetics, GTPγS-loaded KRAS G12C. The note with it: GTPγS loaded protein, geomean. Summed up: as §4
The target in experiment [8] is T4, KRAS G12V. The experiment in a line: SPR binding affinity and kinetics, GTPγS-loaded KRAS G12V. The conditions noted are these: GTPγS loaded protein, geomean. Summed up:
as §4

Experiment [9] addresses HRAS Wild Type (Homo sapiens (Human), UniProt P01112). The experiment in a line: SPR binding affinity and kinetics, GTPγS-loaded HRAS Wild Type. The conditions noted are these: GTPγS loaded protein, geomean. Summed up: as §4
For experiment [10], the target named is NRAS Wild Type (Homo sapiens (Human), UniProt P01111). The experiment in a line: SPR binding affinity and kinetics, GTPγS-loaded NRAS Wild Type. The conditions noted are these: GTPγS loaded protein, geomean. Summed up:
as §4

For experiment [11], the system named is H358 (non-small cell lung cancer cell line). The experiment in a line: KRAS Cell Titer Glo (CTG) cell proliferation assay, H358. In kind it is cell-based. The conditions noted are these: Homo sapiens, NCI-H358, 168 h; H358 cells, 7-day CTG, geomean IC50. Summed up:
(§5)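 Compounds pre-dispensed in 0.1% DMSO before seeding H358 (300 cells/well), SW620 (750) or PANC08.13 (600); 7-day exposure at 37 °C, 5% CO2. Viability by CellTiter-Glo luminescence after 15 min at room temperature. Percent effect normalised to DMSO (0%) and 1 uM trametinib (100%); geomean IC50.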
(In general: ATP-based viability assays read luminescence as a measure of living cells.)

Experiment [12] has as its system SW620 (colorectal cancer cell line). The experiment in a line: KRAS Cell Titer Glo (CTG) cell proliferation assay, SW620. Type of experiment: cell-based. The conditions noted are these: Homo sapiens, SW-620, 168 h; SW620 cells, 7-day CTG, geomean IC50. Summed up:
as §5

In experiment [13] the test system is PANC08.13 (pancreatic cancer cell line). The experiment in a line: KRAS Cell Titer Glo (CTG) cell proliferation assay, PANC08.13. In kind it is cell-based. The note with it: Homo sapiens, PANC-08-13, 168 h; PANC08.13 cells, 7-day CTG, geomean IC50. Summed up:
as §5

T2 sequence (P01116 other isoform, or with tags, fused parts or gaps G12D): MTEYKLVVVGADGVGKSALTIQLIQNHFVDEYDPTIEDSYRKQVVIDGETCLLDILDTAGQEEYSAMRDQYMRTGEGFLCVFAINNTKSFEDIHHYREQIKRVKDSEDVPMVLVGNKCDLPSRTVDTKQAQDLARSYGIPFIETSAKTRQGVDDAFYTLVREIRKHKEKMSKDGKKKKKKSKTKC
T4 sequence (P01116 other isoform, or with tags, fused parts or gaps G12V): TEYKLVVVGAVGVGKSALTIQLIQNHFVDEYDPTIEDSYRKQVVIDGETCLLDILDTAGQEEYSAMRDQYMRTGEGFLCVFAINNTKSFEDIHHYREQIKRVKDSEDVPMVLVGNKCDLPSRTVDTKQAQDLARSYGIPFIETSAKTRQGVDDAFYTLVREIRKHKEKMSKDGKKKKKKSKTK
T3 sequence (P01116 other isoform, or with tags, fused parts or gaps G12C): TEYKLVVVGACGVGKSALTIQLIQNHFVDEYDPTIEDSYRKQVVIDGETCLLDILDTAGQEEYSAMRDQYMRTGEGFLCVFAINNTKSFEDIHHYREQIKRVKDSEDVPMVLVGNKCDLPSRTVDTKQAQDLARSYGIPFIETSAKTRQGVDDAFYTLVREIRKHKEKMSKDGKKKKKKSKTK
T1 sequence (P01116 other isoform, or with tags, fused parts or gaps): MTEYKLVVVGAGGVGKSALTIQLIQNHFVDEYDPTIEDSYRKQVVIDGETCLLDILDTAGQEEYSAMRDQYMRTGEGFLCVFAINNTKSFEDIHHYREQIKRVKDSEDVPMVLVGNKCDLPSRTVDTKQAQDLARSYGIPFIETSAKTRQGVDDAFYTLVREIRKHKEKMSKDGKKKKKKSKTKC
Sequence of NRAS Wild Type (P01111 2-185): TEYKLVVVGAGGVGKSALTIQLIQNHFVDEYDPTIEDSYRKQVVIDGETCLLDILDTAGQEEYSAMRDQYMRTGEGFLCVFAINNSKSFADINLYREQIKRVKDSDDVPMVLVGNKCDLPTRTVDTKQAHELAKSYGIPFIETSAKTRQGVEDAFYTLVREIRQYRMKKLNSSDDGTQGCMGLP
Sequence of HRAS Wild Type (P01112 2-184): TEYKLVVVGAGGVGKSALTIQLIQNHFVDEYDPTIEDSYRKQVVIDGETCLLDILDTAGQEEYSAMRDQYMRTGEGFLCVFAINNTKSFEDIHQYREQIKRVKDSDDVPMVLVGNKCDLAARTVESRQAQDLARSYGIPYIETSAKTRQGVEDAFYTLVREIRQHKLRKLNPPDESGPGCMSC

Turning to `Fc1c(-c2c(C3CC3)c(Cl)cc3[nH]ncc23)nc2c3c(nc(OC[C@@]45CCCN4C[C@H](F)C5)nc13)N1CCCOC[C@H]1CO2` [Example 1, (8aS)-5-(6-chloro-5-cyclopropyl-1H-indazol-4-yl)-4-fluoro-2-{[(2R,7aS)-2-fluorotetrahydro-1H-pyrrolizin-7a(5H)-yl]methoxy}-8a,9,12,13-tetrahydro-8H,11H-7,10-dioxa-1,3,6,13a-tetraazanaphtho[1,8-ab]heptalene], the Kd in experiment [1] is 0.038 nM; in experiment [2], 0.048 nM; in [3], 0.031 nM; in experiment [4] it was 0.105 nM; in experiment [5] it was 14 nM; in experiment [6], 10 nM. The Kd in [7] is 12 nM; in experiment [8], 8 nM; in experiment [9], greater than 10000 nM; in experiment [10] it was greater than 10000 nM. Also, the values for the IC50 in experiment [11], in experiment [12] and in experiment [13] were 73 nM, 83 nM and 7 nM, respectively.
